Assay: xn = mol fraction of the nth substance listed

CCOC(=O)[C@@H](O)[C@H](O)C(=O)OCC + CC(C)CCO
viscosity [mPa·s], 101 kPa
Conditions	x1 = 0.1	x1 = 0.2	x1 = 0.3	x1 = 0.4001	x1 = 0.5	x1 = 0.6001	x1 = 0.6999	x1 = 0.7997	x1 = 0.8998
293.15 K	5.227	7.032	9.91	13.58	20.31	31.03	46.13	74.54	129.6
298.15 K	4.438	5.859	8.123	10.83	15.81	23.2	33.35	51.5	84.95
303.15 K	3.768	4.88	6.638	8.752	12.37	17.66	24.71	36.84	58.14
308.15 K	3.225	4.138	5.497	7.134	9.862	13.75	18.79	27.17	41.31
313.15 K	2.774	3.487	4.567	5.855	7.945	10.86	14.56	20.53	30.25
318.15 K	2.416	3.02	3.904	4.935	6.58	8.824	11.61	15.99	22.88
323.15 K	2.13	2.649	3.374	4.215	5.529	7.295	9.449	12.74	17.8

CNS(C)(=O)=O + c1ccncc1
303.15 K, 101.33 kPa
Conditions	viscosity [mPa·s]
x1 = 0.1002	1.039
x1 = 0.1975	1.31
x1 = 0.2809	1.61
x1 = 0.403	2.214
x1 = 0.5037	2.832
x1 = 0.5728	3.346
x1 = 0.7024	4.52
x1 = 0.8	5.676
x1 = 0.894	6.925

CCCCCl + CCCCO
viscosity [mPa·s], 101 kPa
Conditions	x1 = 0.0749	x1 = 0.2028	x1 = 0.3021	x1 = 0.4122	x1 = 0.5016	x1 = 0.6048	x1 = 0.7044	x1 = 0.8062	x1 = 0.9064
298.15 K	2.121	1.523	–	0.9486	–	0.6572	0.5679	0.4955	0.4465
313.15 K	1.449	1.081	0.8789	0.7145	0.6192	0.5213	0.4589	0.4114	0.3742

O=C(O)/C=C\C(=O)O + C[N+](C)(C)CCO.[Cl-]
viscosity [mPa·s], 101.3 kPa
Conditions	293.2 K	303.2 K	313.2 K
x2 = 0.49	–	8065	4196
x2 = 0.597	7984	4891	2579
x2 = 0.669	4183	2672	1488

From the CheMixHub viscosity set
